Values of other authors as cited in patent EP4574138A1, “A TABLET COMPOSITION COMPRISING IVACAFTOR” (Sanovel Ilac Sanayi Ve Ticaret Anonim Sirketi, priority 2023, dated 2025).

Settings: background description of the drug substance

- solubility in water (practically insoluble in water): < 0.05 microgram/mL
Compound: CC(C)(C)c1cc(C(C)(C)C)c(NC(=O)c2c[nH]c3ccccc3c2=O)cc1O [Ivacaftor, N-(2,4-di-tert-butyl-5-hydroxyphenyl)-1,4-dihydro-4-oxoquinoline-3-carboxamide]
